{
  "source": "ChEMBL document CHEMBL4837249",
  "about": "“Discovery of Potent Antiallergic Agents Based on an o-Aminopyridinyl Alkynyl Scaffold” (J Med Chem, 2021)",
  "key": {"[1]": {"molecular_target": "Tyrosine-protein kinase Fgr (Homo sapiens, UniProt P09769)", "sequence (P09769 whole entry)": "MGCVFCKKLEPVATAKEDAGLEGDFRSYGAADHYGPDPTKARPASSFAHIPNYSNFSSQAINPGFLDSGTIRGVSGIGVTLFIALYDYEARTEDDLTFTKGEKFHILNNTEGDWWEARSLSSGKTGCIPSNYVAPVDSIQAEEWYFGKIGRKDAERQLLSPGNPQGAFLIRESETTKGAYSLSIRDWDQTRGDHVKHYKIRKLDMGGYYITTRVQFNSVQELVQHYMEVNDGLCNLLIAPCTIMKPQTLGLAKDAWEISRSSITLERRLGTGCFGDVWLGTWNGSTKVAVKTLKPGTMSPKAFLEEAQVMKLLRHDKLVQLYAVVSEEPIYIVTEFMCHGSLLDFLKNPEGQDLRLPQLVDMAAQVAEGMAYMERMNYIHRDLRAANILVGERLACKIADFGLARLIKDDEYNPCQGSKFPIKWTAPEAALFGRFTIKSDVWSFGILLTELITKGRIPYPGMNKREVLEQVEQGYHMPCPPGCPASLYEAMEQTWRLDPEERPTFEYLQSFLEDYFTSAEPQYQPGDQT", "experiment": "Inhibition of human recombinant FGR (456 to 770) radiometric scintillation counting analysis"}, "[2]": {"molecular_target": "Tyrosine-protein kinase Lyn (Homo sapiens, UniProt P07948)", "sequence (P07948 whole entry)": "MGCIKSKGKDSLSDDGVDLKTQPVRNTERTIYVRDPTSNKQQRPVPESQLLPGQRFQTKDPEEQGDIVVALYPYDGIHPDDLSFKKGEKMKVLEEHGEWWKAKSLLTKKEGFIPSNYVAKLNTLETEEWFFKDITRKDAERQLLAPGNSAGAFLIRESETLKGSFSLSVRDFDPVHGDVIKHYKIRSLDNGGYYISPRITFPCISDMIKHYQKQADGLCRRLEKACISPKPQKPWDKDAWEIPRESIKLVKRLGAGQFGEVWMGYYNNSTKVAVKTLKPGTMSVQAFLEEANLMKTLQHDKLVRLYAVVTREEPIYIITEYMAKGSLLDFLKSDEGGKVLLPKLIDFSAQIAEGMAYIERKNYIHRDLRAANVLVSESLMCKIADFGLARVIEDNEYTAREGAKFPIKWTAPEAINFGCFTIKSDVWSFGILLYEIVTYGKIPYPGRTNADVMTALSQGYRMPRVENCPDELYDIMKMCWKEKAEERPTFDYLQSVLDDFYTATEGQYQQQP", "experiment": "Inhibition of human full length recombinant LYN by radiometric scintillation counting analysis"}, "[3]": {"molecular_target": "T1, Tyrosine-protein kinase Tec (Homo sapiens) (UniProt P42680)", "T1 sequence (whole entry)": "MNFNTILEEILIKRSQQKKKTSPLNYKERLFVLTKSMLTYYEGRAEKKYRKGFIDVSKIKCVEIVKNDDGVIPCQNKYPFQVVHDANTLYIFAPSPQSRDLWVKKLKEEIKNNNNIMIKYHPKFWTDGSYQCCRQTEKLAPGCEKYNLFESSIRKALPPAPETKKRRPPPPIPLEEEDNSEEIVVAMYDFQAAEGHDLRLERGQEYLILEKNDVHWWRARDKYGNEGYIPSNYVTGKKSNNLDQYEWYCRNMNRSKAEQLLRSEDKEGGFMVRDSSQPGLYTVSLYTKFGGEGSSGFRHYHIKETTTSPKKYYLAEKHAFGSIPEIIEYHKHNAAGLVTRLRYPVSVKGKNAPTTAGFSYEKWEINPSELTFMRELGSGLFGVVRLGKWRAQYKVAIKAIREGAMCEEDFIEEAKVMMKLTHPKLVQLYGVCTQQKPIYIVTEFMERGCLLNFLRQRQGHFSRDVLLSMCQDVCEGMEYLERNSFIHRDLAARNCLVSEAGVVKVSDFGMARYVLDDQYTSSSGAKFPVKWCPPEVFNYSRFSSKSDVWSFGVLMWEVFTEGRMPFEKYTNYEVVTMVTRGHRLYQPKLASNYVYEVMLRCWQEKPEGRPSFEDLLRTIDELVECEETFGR", "experiment": "Inhibition of human recombinant Tec (174 to end) at 50 nM by radiometric scintillation counting analysis relative to control"}, "[4]": {"molecular_target": "T1, Tyrosine-protein kinase Tec (Homo sapiens)", "experiment": "Inhibition of human recombinant Tec (174 to end) at 500 nM by radiometric scintillation counting analysis relative to control"}, "[5]": {"molecular_target": "T2, Inhibitor of nuclear factor kappa-B kinase subunit alpha (Homo sapiens) (UniProt O15111)", "T2 sequence (whole entry)": "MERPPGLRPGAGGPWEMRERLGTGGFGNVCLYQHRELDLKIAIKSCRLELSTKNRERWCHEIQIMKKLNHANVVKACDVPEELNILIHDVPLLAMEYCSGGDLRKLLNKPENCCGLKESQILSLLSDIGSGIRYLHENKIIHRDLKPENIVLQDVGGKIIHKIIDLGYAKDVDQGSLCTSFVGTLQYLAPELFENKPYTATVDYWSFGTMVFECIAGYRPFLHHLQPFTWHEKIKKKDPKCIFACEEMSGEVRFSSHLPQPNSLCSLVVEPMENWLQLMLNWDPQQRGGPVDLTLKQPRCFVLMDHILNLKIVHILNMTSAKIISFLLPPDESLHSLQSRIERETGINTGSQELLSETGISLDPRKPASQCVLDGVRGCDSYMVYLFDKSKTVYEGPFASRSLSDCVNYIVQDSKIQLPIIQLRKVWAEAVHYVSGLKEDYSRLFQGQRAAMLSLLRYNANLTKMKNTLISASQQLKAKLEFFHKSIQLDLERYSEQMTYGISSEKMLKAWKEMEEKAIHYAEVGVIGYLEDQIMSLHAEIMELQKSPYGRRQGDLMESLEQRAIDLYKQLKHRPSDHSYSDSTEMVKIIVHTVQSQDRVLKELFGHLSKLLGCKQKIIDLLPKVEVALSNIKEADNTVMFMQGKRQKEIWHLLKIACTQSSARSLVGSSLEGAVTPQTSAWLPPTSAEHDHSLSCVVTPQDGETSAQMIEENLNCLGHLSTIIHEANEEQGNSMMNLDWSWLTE", "experiment": "Inhibition of human full length recombinant IKKalpha at 50 nM by radiometric scintillation counting analysis relative to control"}, "[6]": {"molecular_target": "Tyrosine-protein kinase Fyn (Homo sapiens, UniProt P06241)", "sequence (P06241 whole entry)": "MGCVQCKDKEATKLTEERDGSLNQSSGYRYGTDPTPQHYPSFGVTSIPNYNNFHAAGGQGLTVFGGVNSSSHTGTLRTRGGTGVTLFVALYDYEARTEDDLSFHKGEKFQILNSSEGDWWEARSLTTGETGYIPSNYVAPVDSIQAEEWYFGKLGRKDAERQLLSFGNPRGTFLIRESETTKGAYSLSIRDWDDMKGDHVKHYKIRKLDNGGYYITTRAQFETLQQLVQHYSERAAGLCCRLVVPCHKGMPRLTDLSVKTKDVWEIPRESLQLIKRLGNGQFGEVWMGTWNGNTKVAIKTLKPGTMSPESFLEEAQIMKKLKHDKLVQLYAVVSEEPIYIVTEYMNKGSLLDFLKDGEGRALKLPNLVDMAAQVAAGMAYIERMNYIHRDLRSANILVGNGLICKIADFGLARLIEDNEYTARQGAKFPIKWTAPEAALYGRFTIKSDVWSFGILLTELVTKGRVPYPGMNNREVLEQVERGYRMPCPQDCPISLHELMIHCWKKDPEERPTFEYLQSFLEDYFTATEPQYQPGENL", "experiment": "Inhibition of human full length recombinant Fyn by radiometric scintillation counting analysis"}, "[7]": {"molecular_target": "Tyrosine-protein kinase SYK (Homo sapiens) (UniProt P43405)", "experiment": "Inhibition of human full length recombinant Syk at 50 nM by radiometric scintillation counting analysis relative to control"}, "RBL-2H3 [8]": {"tested_on": "RBL-2H3", "experiment": "Antiallergic activity against anti-DNP-IgE sensitized rat RBL-2H3 cells assessed as […] of degranulation by measuring beta-hexosaminidase release using P-nitrophenyl-N-acetyl-D-glucosamide as substrate at 1 uM measured after 1 hr by microplate reader relative to control", "type": "functional"}, "[9]": {"molecular_target": "Tyrosine-protein kinase CSK (Homo sapiens, UniProt P41240)", "sequence (P41240 whole entry)": "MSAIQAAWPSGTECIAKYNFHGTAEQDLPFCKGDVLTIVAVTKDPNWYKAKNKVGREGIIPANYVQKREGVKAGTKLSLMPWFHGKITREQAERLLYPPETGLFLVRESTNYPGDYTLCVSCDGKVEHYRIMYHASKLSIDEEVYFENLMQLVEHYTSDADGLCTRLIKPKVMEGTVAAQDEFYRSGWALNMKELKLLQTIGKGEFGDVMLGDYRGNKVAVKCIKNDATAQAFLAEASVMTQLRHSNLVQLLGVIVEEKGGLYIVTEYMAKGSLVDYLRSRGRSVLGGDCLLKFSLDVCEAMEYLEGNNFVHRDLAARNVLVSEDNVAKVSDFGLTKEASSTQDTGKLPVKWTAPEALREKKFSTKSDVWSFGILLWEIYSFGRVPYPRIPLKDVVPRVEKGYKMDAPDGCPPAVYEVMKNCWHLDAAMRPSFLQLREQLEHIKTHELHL", "experiment": "Inhibition of human full length recombinant CSK by radiometric scintillation counting analysis"}, "RBL-2H3 [10]": {"tested_on": "RBL-2H3", "experiment": "Antiallergic activity against anti-DNP-IgE sensitized rat RBL-2H3 cells assessed as […] of degranulation by measuring beta-hexosaminidase release using P-nitrophenyl-N-acetyl-D-glucosamide as substrate at 0.2 uM measured after 1 hr by microplate reader relative to control", "type": "functional"}, "[11]": {"molecular_target": "T1, Tyrosine-protein kinase Tec (Homo sapiens)", "experiment": "Inhibition of human recombinant Tec (174 to end) at 5 nM by radiometric scintillation counting analysis relative to control"}, "[12]": {"molecular_target": "T3, Tyrosine-protein kinase ITK/TSK (Homo sapiens) (UniProt Q08881)", "T3 sequence (whole entry)": "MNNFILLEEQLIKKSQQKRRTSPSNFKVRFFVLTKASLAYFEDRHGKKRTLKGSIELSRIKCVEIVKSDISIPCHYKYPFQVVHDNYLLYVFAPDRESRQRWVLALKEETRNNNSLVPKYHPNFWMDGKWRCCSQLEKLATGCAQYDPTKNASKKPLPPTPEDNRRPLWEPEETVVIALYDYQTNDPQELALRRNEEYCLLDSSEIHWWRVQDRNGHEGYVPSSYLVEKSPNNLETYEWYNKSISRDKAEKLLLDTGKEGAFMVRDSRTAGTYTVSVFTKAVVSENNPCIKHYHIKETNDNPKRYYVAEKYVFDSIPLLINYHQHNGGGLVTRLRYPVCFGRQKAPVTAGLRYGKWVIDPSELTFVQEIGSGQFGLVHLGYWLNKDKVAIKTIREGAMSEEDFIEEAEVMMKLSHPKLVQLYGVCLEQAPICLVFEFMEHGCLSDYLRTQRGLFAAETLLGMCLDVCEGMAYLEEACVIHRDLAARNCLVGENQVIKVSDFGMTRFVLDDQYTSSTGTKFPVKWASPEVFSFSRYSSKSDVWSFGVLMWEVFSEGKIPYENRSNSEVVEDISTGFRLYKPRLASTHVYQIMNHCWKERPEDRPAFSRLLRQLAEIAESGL", "experiment": "Inhibition of human recombinant ITK (352 to 617) at 50 nM by radiometric scintillation counting analysis relative to control"}, "[13]": {"molecular_target": "Macrophage colony-stimulating factor 1 receptor (Homo sapiens, UniProt P07333)", "sequence (P07333 whole entry)": "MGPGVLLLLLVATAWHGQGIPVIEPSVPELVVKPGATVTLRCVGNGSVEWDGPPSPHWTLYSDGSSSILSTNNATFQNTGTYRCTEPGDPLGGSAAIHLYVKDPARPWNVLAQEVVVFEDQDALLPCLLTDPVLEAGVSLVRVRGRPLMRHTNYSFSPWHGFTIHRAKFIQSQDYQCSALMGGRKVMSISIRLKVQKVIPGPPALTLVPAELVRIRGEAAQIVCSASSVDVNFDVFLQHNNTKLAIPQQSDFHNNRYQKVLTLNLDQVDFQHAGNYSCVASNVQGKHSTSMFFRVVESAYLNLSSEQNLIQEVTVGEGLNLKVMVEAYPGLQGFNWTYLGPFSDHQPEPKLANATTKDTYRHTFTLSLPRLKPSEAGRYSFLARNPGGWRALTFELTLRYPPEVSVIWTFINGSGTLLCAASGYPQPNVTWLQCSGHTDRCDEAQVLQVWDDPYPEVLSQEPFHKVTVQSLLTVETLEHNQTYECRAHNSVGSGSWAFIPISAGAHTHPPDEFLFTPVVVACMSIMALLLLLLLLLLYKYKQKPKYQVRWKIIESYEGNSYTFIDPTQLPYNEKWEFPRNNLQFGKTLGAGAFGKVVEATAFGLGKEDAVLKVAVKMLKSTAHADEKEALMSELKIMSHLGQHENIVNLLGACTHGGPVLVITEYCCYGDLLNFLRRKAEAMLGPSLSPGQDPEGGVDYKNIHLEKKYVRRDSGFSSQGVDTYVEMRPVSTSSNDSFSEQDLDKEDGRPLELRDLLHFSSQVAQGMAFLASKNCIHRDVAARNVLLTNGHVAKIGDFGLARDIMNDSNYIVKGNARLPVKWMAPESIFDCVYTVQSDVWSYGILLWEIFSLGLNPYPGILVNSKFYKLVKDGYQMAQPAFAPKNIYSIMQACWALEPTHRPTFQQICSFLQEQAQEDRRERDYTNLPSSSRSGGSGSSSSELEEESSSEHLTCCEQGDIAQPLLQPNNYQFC", "experiment": "Inhibition of human recombinant CSF1R using ATP/Ulight-TK peptide at 50 nM incubated for 15 mins"}, "[14]": {"molecular_target": "RAC-alpha serine/threonine-protein kinase (Homo sapiens) (UniProt P31749)", "sequence (P31749 whole entry)": "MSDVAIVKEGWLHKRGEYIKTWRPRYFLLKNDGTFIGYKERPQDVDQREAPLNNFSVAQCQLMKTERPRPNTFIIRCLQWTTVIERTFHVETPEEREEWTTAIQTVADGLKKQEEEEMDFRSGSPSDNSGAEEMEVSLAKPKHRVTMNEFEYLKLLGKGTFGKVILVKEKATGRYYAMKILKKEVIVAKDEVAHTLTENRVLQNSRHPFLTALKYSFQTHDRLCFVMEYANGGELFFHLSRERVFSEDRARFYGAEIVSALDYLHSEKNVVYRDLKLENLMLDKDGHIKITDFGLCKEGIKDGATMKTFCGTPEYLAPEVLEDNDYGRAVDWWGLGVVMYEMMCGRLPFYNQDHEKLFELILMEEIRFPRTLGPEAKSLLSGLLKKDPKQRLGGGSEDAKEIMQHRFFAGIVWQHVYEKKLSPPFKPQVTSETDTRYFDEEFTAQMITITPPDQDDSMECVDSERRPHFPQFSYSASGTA", "experiment": "Inhibition of human recombinant PKBalpha at 500 nM radiometric scintillation counting analysis relative to control"}},
  "data": [
    {"smiles": "Cc1ccc(C(=O)Nc2cc(C(F)(F)F)cc(C(F)(F)F)c2)cc1C#Cc1cc(-c2cnn(C)c2)cnc1N", "values": [
      {"measurement": "IC50", "setting": "[1]", "value": 41, "unit": "nM"},
      {"measurement": "IC50", "setting": "[2]", "value": 9, "unit": "nM"},
      {"measurement": "inhibition", "setting": "[3]", "value": 10, "unit": "%"},
      {"measurement": "inhibition", "setting": "[4]", "value": -3, "unit": "%"},
      {"measurement": "inhibition", "setting": "[5]", "value": 3, "unit": "%"},
      {"measurement": "IC50", "setting": "[6]", "value": 56, "unit": "nM"},
      {"measurement": "inhibition", "setting": "[7]", "value": -1, "unit": "%"},
      {"measurement": "inhibition at 1 µM", "setting": "RBL-2H3 [8]", "value": 144, "unit": "%"},
      {"measurement": "IC50", "setting": "[9]", "value": 187, "unit": "nM"},
      {"measurement": "inhibition at 0.2 µM", "setting": "RBL-2H3 [10]", "value": 162, "unit": "%"},
      {"measurement": "inhibition", "setting": "[11]", "value": 1, "unit": "%"},
      {"measurement": "inhibition", "setting": "[12]", "value": -1, "unit": "%"},
      {"measurement": "IC50", "setting": "[13]", "value": 48, "unit": "nM"}
    ]},
    {"smiles": "Cc1ccc(C(=O)Nc2ccc(Cl)cc2Cl)cc1C#Cc1cc(-c2cnn(C)c2)cnc1N", "values": [
      {"measurement": "IC50", "setting": "[1]", "value": "> 1000", "unit": "nM"},
      {"measurement": "IC50", "setting": "[2]", "value": 7, "unit": "nM"},
      {"measurement": "inhibition", "setting": "[3]", "value": -10, "unit": "%"},
      {"measurement": "inhibition", "setting": "[4]", "value": -7, "unit": "%"},
      {"measurement": "inhibition", "setting": "[5]", "value": 9, "unit": "%"},
      {"measurement": "IC50", "setting": "[6]", "value": 307, "unit": "nM"},
      {"measurement": "inhibition", "setting": "[7]", "value": -3, "unit": "%"},
      {"measurement": "IC50", "setting": "[9]", "value": "> 1000", "unit": "nM"},
      {"measurement": "inhibition", "setting": "[11]", "value": -5, "unit": "%"},
      {"measurement": "inhibition", "setting": "[14]", "value": 2, "unit": "%"},
      {"measurement": "inhibition", "setting": "[12]", "value": 3, "unit": "%"},
      {"measurement": "IC50", "setting": "[13]", "value": 11, "unit": "nM"}
    ]},
    {"smiles": "Cc1ccc(C(=O)Nc2ccc(OC(F)(F)F)cc2)cc1C#Cc1cc(-c2cnn(C)c2)cnc1N", "values": [
      {"measurement": "inhibition at 1 µM", "setting": "RBL-2H3 [8]", "value": 144, "unit": "%"},
      {"measurement": "inhibition at 0.2 µM", "setting": "RBL-2H3 [10]", "value": 122, "unit": "%"},
      {"measurement": "inhibition", "setting": "[14]", "value": -5, "unit": "%"}
    ]}
  ]
}
